Target: T1, EpzP (Streptomyces virginiae, UniProt E5KWG9)
T1 construct: pET28a His6-tag, E. coli Rosetta2; tag thrombin-cleaved for structures (EpzPm: lysines reductively methylated, 18 of 19)
T1 sequence (E5KWG9 1-302): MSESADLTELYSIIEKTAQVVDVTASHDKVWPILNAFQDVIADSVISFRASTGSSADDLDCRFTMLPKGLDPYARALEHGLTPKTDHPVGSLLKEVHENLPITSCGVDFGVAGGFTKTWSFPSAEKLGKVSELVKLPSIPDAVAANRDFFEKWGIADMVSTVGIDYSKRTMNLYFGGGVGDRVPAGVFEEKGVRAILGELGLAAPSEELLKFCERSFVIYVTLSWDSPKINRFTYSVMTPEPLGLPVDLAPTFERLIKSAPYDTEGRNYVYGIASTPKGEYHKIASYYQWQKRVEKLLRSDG
Test: X-ray crystal structure ([…] A)
Assay type: binding
Conditions: lysine-methylated EpzP; crystal soaked with 5 mM DMSPP, hydrolysed to SPP; diphosphate site; acidic pH

O=P(O)(O)OP(=O)(O)S (stereo not shown) [S-thiolodiphosphate]
X-ray crystal structure (1.67 A): revealed the presence of a S-thiolodiphosphate (SPP) moiety in the diphosphate binding site

Source: article PMC3485228, “Structure-Based Engineering Increased the Catalytic Turnover Rate of a Novel Phenazine Prenyltransferase” (PLoS ONE, 2012)
